Among the test systems are CAKI-1 renal; COLO 205 colon; DLD-1 colon; HL-60(TB) leukemia; KM20L2 colon; M14 melanoma; NCI-H460 lung; SF-295 CNS; SNB-19 CNS; XF 498 CNS; HOP-92 NSCLC; SNB-78 CNS; MDA-MB-435.
Experiment in all cases: NCI tumour cell line growth inhibition, 48 h

Where “and” joins values, the source holds several entries; their conditions need not be identical. Equal values may be shown once.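 The compound was tested at five concentrations on cells cultured in 96-well plates, with a 48-hour exposure period. Here, GI50 denotes the concentration required for 50% inhibition of growth. TGI marks complete inhibition of growth.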 A value given as a limit tells only on which side of the number the result lay.

On to `CCOc1ncnc2ccc(Cl)c(I)c12`, for which the TGI in the test on CAKI-1 renal, with COLO 205 colon, in the test with DLD-1 colon, with HL-60(TB) leukemia, in the test on KM20L2 colon and with M14 melanoma was > 100 µM throughout. Also, the TGI in the test on NCI-H460 lung, in the test on SF-295 CNS, in the test with SNB-19 CNS and with XF 498 CNS was > 100 µM each time.
As to `COc1cc(OC)cc(C(=O)Cc2c(C(=O)c3ccccc3)c3ccccc3n2C(=O)c2ccccc2)c1`, the TGI is > 100 µM in the test with CAKI-1 renal; 93.4 µM in the test with COLO 205 colon; > 100 µM in the test on DLD-1 colon; > 100 µM in the test on HL-60(TB) leukemia; 31.3 µM with HOP-92 NSCLC; > 100 µM in the test with KM20L2 colon. Further, the TGI in the test on M14 melanoma was > 100 µM; with NCI-H460 lung, > 100 µM; in the test with SF-295 CNS it was 94.9 µM; in the test with SNB-19 CNS it was 69 µM; in the test on SNB-78 CNS, > 100 µM; in the test on XF 498 CNS, 73.6 µM.
In the case of `COc1ccc(NS(=O)(=O)c2ccc(N=C3C=C(Nc4ccc(S(=O)(=O)Nc5ccc(OC)nn5)cc4)C(=O)c4ccccc43)cc2)nn1`, the TGI with CAKI-1 renal was 40.7 µM; in the test with COLO 205 colon, 32.5 µM; in the test on DLD-1 colon, 36.9 µM; with HL-60(TB) leukemia, > 100 µM; in the test with HOP-92 NSCLC, 88.8 µM; with KM20L2 colon, 31.8 µM. The TGI in the test with M14 melanoma is 31.3 µM; in the test with NCI-H460 lung, 31.5 µM; in the test on SF-295 CNS, 32.1 µM; in the test with SNB-19 CNS, 33.4 µM; in the test with SNB-78 CNS, > 100 µM; with XF 498 CNS it was 54.3 µM.
Consider `CCCCC(N)CSSCC(N)CCCC` (stereo unspecified), for which the TGI with COLO 205 colon is > 100 µM; with DLD-1 colon it was 60.3 µM; in the test with HL-60(TB) leukemia, 40.1 µM; with M14 melanoma, 38.2 µM; with NCI-H460 lung, > 100 µM; with SF-295 CNS, > 100 µM. Also, the TGI in the test on SNB-19 CNS was > 100 µM; with SNB-78 CNS, 98.5 µM; in the test with XF 498 CNS, 34.9 µM.
As to `Cn1cc2ccccc2c1-c1nc(F)nc(Nc2ccc(N)cc2)n1`, the TGI with CAKI-1 renal was 45 µM; in the test on DLD-1 colon, 34.9 µM; with HL-60(TB) leukemia it was > 100 µM; in the test with HOP-92 NSCLC, 55.6 µM; with KM20L2 colon, 47.4 µM; in the test on M14 melanoma it was 27.3 µM. The TGI came to 31.5 µM with NCI-H460 lung; 50.4 µM in the test on SF-295 CNS; 95.5 µM with SNB-19 CNS; 77.7 µM in the test with SNB-78 CNS; 30 µM with XF 498 CNS.
For the compound `CC(C)=CCC/C(C)=C/CC/C(C)=C/C1CCC(=O)C1(C)C` (stereo unspecified), the TGI in the test on CAKI-1 renal is 46.8 µM; with COLO 205 colon, 30.8 µM; in the test with DLD-1 colon, 32.6 µM; with HL-60(TB) leukemia it was 27 µM; with HOP-92 NSCLC it was 51.7 µM; in the test on KM20L2 colon it was 31.9 µM. In addition, the TGI with M14 melanoma was found to be 42.5 µM; in the test with NCI-H460 lung, 32.6 µM; in the test with SF-295 CNS, 33 µM; in the test with SNB-19 CNS, 65.2 µM; in the test on SNB-78 CNS, 53.4 µM; with XF 498 CNS, 32.3 µM.
As for `COc1ccc(-c2nc(SC)n(C3OC(COC(C)=O)C(OC(C)=O)C(OC(C)=O)C3OC(C)=O)c(=O)c2C#N)cc1` (stereo unspecified), the TGI in the test on CAKI-1 renal is > 100 µM; with COLO 205 colon, > 100 µM; with HL-60(TB) leukemia, > 100 µM; in the test with HOP-92 NSCLC it was 52.9 µM and > 100 µM; with KM20L2 colon, > 100 µM; in the test on M14 melanoma, > 100 µM. In addition, the TGI in the test with MDA-MB-435 was > 100 µM; in the test with NCI-H460 lung it was > 100 µM; in the test with SF-295 CNS, 65.6 µM and > 100 µM; in the test on SNB-19 CNS, > 100 µM; in the test on SNB-78 CNS, 57.8 µM. Moreover, the GI50 in the test with HOP-92 NSCLC was 14.1 µM and 39.2 µM; in the test with NCI-H460 lung it was 80.4 µM and 14.4 µM; with SF-295 CNS, 24.2 µM and > 100 µM; with SNB-19 CNS, 26.3 µM and > 100 µM.
On to `COc1ccc(NC(=O)CC(=O)N2N=C(C)C(N=Nc3ccc(C(=O)O)cc3)C2=O)cc1` (stereo unspecified), for which the TGI in the test with CAKI-1 renal, in the test with COLO 205 colon, in the test on HL-60(TB) leukemia, in the test with HOP-92 NSCLC, in the test with M14 melanoma and in the test with MDA-MB-435 was > 100 µM each time. The TGI in the test on NCI-H460 lung, with SF-295 CNS and in the test on SNB-19 CNS was > 100 µM in each case.
On to `CCOC(=O)/C=C(/C(=O)OCC)n1ccc(=O)n(CC(=O)OCC)c1=O`, for which the TGI turned out to be 0.32 µM in the test on CAKI-1 renal; 1.63 µM with COLO 205 colon; 0.483 µM in the test on HL-60(TB) leukemia; 1.46 µM with HOP-92 NSCLC; 2.73 µM in the test with M14 melanoma; 3.64 µM with MDA-MB-435. Further, the TGI with NCI-H460 lung worked out at 15.1 µM; with SF-295 CNS it was 28.1 µM; in the test with SNB-19 CNS, 25.4 µM. For the same compound, the GI50 with COLO 205 colon was 0.361 µM; with HL-60(TB) leukemia, 0.191 µM.
With `Cc1cc(=O)n2nc(CSc3n[nH]c(=S)s3)sc2n1`, the TGI in the test on CAKI-1 renal, in the test with COLO 205 colon, in the test on HL-60(TB) leukemia, with HOP-92 NSCLC, in the test on M14 melanoma and in the test with MDA-MB-435 was > 100 µM in each case. The TGI in the test with NCI-H460 lung, with SF-295 CNS and with SNB-19 CNS was > 100 µM each time.
For `COc1ccc(S(=O)(=O)Nc2ccc(-c3csc(N4C(=O)/C(=C/c5cccs5)N=C4c4ccccc4)n3)cc2)cc1Cl`, the TGI was > 100 µM in the test with CAKI-1 renal; > 100 µM in the test on COLO 205 colon; 87.4 µM with HL-60(TB) leukemia; 72 µM with HOP-92 NSCLC; > 100 µM with M14 melanoma; > 100 µM in the test on MDA-MB-435. The TGI in the test on NCI-H460 lung, in the test on SF-295 CNS and in the test with SNB-19 CNS was > 100 µM each time.
For the compound `FC(F)(F)C1(c2ccccc2)SCc2nc3ccccc3n21` (stereo unspecified), the TGI in the test with CAKI-1 renal, in the test on COLO 205 colon, in the test with HL-60(TB) leukemia, in the test with HOP-92 NSCLC, with M14 melanoma and in the test with MDA-MB-435 was > 100 µM throughout. Besides, the TGI in the test on NCI-H460 lung, in the test on SF-295 CNS and in the test on SNB-19 CNS was > 100 µM each time.
As to `O=C(Nc1nccs1)NS(=O)(=O)n1cnc2ccccc21`, the TGI in the test on CAKI-1 renal, with COLO 205 colon, in the test on HL-60(TB) leukemia, with HOP-92 NSCLC, in the test with M14 melanoma and in the test with MDA-MB-435 was > 100 µM throughout. Also, the TGI with NCI-H460 lung, in the test on SF-295 CNS and with SNB-19 CNS was > 100 µM in each case.
Consider `CCOC1=NC(C(F)(F)F)(C(F)(F)F)N=C(N2CCCCC2)O1`, for which the TGI in the test with CAKI-1 renal, in the test on COLO 205 colon, in the test on HL-60(TB) leukemia, in the test with HOP-92 NSCLC, in the test with M14 melanoma and with MDA-MB-435 was > 100 µM throughout. Moreover, the TGI with NCI-H460 lung, in the test on SF-295 CNS and in the test on SNB-19 CNS was > 100 µM each time.
